Measurements published in article PMC12477080, “Polychlorinated biphenyls (PCBs) interact with drug metabolism in vivo” (Archives of Toxicology, 2025).

How the values were obtained:
[1] = molecular target: T1, HEK293 cells overexpressing CYP1A2 (Homo sapiens, UniProt P05177); experiment: CYP1A2 activity in transgenic HEK293 cells (phenacetin probe); type: cell-based; settings: 0.1, 0.5, 1 µM PCB118, 30 min, then 10 µM phenacetin 1 h
T1 construct: expressed in transfected cells; host or cells: HEK293
T1 sequence (P05177 1-516): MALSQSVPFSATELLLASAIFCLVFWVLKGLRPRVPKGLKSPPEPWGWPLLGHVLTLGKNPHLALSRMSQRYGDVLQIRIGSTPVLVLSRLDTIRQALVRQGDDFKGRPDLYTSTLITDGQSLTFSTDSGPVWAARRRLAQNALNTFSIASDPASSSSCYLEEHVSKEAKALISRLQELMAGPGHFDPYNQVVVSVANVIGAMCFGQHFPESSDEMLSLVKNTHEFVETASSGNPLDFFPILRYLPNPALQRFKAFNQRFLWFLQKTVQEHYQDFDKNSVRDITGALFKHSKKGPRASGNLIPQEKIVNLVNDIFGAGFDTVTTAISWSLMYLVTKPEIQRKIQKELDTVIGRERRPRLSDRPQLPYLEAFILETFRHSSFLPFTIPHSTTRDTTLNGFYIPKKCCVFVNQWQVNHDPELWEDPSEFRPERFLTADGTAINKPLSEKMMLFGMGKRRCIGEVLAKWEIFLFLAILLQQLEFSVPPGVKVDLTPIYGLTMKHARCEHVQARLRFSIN

Human CYP1A2 = molecular target: T2, Human CYP1A2 (Homo sapiens, UniProt P05177); experiment: In vitro metabolism by CYP1A2 Supersomes; type: in vitro ADME; settings: 10 µM substrate, 50 pmol/mL CYP1A2 supersomes, 2 mM NADPH; 1 h (phenacetin), 1 and 4 h (PCB118)
T2 construct: purchased; host or cells: insect cells
T2 sequence (P05177 2-516 limits assumed): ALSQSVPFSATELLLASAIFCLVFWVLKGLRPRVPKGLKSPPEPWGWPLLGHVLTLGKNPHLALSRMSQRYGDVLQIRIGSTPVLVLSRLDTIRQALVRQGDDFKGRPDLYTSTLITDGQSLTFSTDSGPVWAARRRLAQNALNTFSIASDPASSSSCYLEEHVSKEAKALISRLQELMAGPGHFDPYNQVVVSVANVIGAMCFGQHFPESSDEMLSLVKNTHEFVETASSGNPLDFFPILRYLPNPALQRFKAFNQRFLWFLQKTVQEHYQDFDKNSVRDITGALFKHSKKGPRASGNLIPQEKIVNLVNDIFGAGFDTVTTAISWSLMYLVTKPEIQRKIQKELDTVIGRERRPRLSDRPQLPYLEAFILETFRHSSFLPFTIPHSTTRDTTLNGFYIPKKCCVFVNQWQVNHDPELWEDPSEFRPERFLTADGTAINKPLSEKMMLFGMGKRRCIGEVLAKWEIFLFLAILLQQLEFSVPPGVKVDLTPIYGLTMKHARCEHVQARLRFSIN
Procedure: To investigate the metabolism of PCB118 by CYP1A2, incubation assays were conducted using CYP1A2 supersomes in a total reaction volume of 100 µL. Reaction mixtures were assembled on ice. […] Reactions were initiated by the addition of CYP1A2 supersomes.
To assess potential non-enzymatic transformations and confirm NADPH-dependent metabolism, control incubations were performed under the following conditions: buffer and enzyme only (no-substrate control), substrate, buffer, and NADPH without enzyme (no-enzyme control), and substrate, buffer, and enzyme without NADPH (no-NADPH control). Each experimental condition was conducted in triplicate, while control conditions were performed as single replicates.
The resulting supernatants (100 µL) were transferred to LC–MS vials, yielding samples with 80% methanol content for analysis. For the detection of hydroxylated PCB metabolites, reactions were stopped by adding 500 µL methanol, followed by the addition of 50 µL of an internal standard mix (10 ng/mL). Samples were vortexed for 1 min and centrifuged at 4,500 rpm for 10 min. The resulting supernatants were transferred to glass LC vials and evaporated under a nitrogen stream at 45 °C until approximately 50 µL remained. Samples were then reconstituted in 100 µL of 0.1 M ammonium acetate buffer (pH 5.3) before transfer to inserts for LC–MS analysis.
To determine whether PCB118 serves as a substrate for CYP1A2 and could act as a competitive inhibitor for other CYP1A2 substrates, we conducted in vitro metabolism experiments. […] In parallel, CYP1A2-mediated metabolism of PCB118 was assessed. […] The identity of 4-OH-CB107 was verified by comparison with an authentic reference standard, showing identical retention time and spectral characteristics (supplemental Fig. 1).

Which results are given for `Clc1ccc(-c2cc(Cl)c(Cl)cc2Cl)cc1Cl` [PCB118]?
effect on CYP1A2 activity in HEK293 cells (phenacetin probe) [1]: significantly inhibited CYP1A2 activity in a dose-dependent manner; CYP1A2-mediated metabolism of the substrate (Human CYP1A2): catalyzed the hydroxylation of PCB118, leading to the formation of 4-OH-CB107
